Data published in patent US20230085307A1, “PYRIDAZINONE COMPOUND AND HERBICIDE” (NISSAN CHEMICAL CORPORATION, priority 2019, published 2023).

Key:
late watergrass [1] = assay: Test Example 1: herbicidal activity, application before weed generation under submerged conditions (Table 16, symbol A); assay type: in vivo, late watergrass (Echinochloa oryzicola); details: for Herbicidal effect on A: late watergrass (grade 0-5): 320 g/ha applied herbicide
Procedure, shortened: (§1)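 Alluvial soil was flooded to 4 cm depth, weed seeds were sown mixed and 2.5-leaf rice seedlings were transplanted. On sowing day, the compound's emulsion, diluted in water to a set dose, was applied to the water surface. Plants grew at 25–30 °C and were scored 0–5 after three weeks.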

Japanese bulrush [2] = assay: Test Example 2: herbicidal activity, application during weed generation under submerged conditions (Table 17, symbol B); assay type: in vivo, Japanese bulrush (Schoenoplectus juncoides); details: for herbicidal effect rating, B: Japanese bulrush: AAH 320 g/ha, application during weed generation, submerged conditions; for herbicidal effect grade, B: Japanese bulrush: application during weed generation under submerged conditions
Procedure, shortened: (§2)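 Alluvial soil in Wagner pots was flooded to 4 cm depth and sown with the three weeds together; pots were kept in a greenhouse at 25° C. to 30° C. At the one to two leaf stage, an emulsion formulation diluted in water to a set rate went onto the water surface; scored three weeks later.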

oval-leafed pondweed [3] = assay: Test Example 2: herbicidal activity, application during weed generation under submerged conditions (Table 17, symbol C); assay type: in vivo, oval-leafed pondweed (Monochoria vaginalis); details: for herbicidal effect rating, C: oval-leafed pondweed: AAH 320 g/ha, application during weed generation, submerged conditions; for herbicidal effect grade, C: oval-leafed pondweed: application during weed generation under submerged conditions
Procedure, shortened: as §2

oval-leafed pondweed [4] = assay: Test Example 1: herbicidal activity, application before weed generation under submerged conditions (Table 16, symbol C); assay type: in vivo, oval-leafed pondweed (Monochoria vaginalis); details: for Herbicidal effect on C: oval-leafed pondweed (grade 0-5): 320 g/ha applied herbicide
Procedure, shortened: as §1

Chinese sprangletop = assay: Test Example 3: herbicidal effect by foliage application, Wagner pot (Table 18, symbol D); assay type: in vivo, chinese sprangletop (Leptochloa chinensis); details: for herbicidal effect on D (Chinese sprangletop), rating 0-5: 320 g/ha
Procedure, shortened: (§3)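 Plants were sown in alluvial soil held under 0.1–0.5 cm standing water and grown 14 days in a greenhouse at 25–30 °C. An emulsifiable formulation, water-diluted to the set dose, was then sprayed onto the foliage, and effects were scored three weeks later using previously defined criteria.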

rice flat sedge = assay: Test Example 3: herbicidal effect by foliage application, Wagner pot (Table 18, symbol E); assay type: in vivo, rice flat sedge (Cyperus iria); details: for herbicidal effect on E (rice flat sedge), rating 0-5: 320 g/ha
Procedure, shortened: as §3

late watergrass [5] = assay: Test Example 2: herbicidal activity, application during weed generation under submerged conditions (Table 17, symbol A); assay type: in vivo, late watergrass (Echinochloa oryzicola); details: for herbicidal effect rating, A: late watergrass: AAH 320 g/ha, application during weed generation, submerged conditions; for herbicidal effect grade, A: late watergrass: application during weed generation under submerged conditions
Procedure, shortened: as §2

barnyard grass = assay: Test Example 3: herbicidal effect by foliage application, Wagner pot (Table 18, symbol H); assay type: in vivo, barnyard grass (Echinochloa crus-galli); details: for herbicidal effect on H (barnyard grass), rating 0-5: 320 g/ha
Procedure, shortened: as §3

Japanese bulrush [6] = assay: Test Example 1: herbicidal activity, application before weed generation under submerged conditions (Table 16, symbol B); assay type: in vivo, Japanese bulrush (Schoenoplectus juncoides); details: for Herbicidal effect on B: Japanese bulrush (grade 0-5): 320 g/ha applied herbicide
Procedure, shortened: as §1

[7] = amount of applied herbicide 320 g/ha
[8] = amount of applied herbicide 438 g/ha

| SMILES | Herbicidal effect on A: late watergrass (grade 0-5) (late watergrass [1]) | herbicidal effect rating, B: Japanese bulrush (Japanese bulrush [2]) | herbicidal effect rating, C: oval-leafed pondweed (oval-leafed pondweed [3]) | Herbicidal effect on C: oval-leafed pondweed (grade 0-5) (oval-leafed pondweed [4]) | herbicidal effect rating, A: late watergrass (late watergrass [5]) | Herbicidal effect on B: Japanese bulrush (grade 0-5) (Japanese bulrush [6]) | herbicidal effect on D: Chinese sprangletop (Chinese sprangletop; [7]) | herbicidal effect on E: rice flat sedge (rice flat sedge; [7]) | herbicidal effect on H: barnyard grass (barnyard grass; [7]) | other results |
| --- | --- | --- | --- | --- | --- | --- | --- | --- | --- | --- |
| C=CCCOc1ccc(-c2sc3ccccc3c2-c2c(O)c(C)nn(C)c2=O)cc1 [1-207] | 5 (Herbicidal rate of 90% or more (almost completely withered)) | 4 (Herbicidal rate of 70% or more and less than 90%) | 5 (Herbicidal rate of 90% or more (almost completely withered)) | 5 (Herbicidal rate of 90% or more (almost completely withered)) | 5 (Herbicidal rate of 90% or more (almost completely withered)) | 5 (Herbicidal rate of 90% or more (almost completely withered)) | – | – | – | herbicidal effect on D (Chinese sprangletop), rating 0-5 (Chinese sprangletop): 5 (Herbicidal rate of 90% or more (almost completely withered)); herbicidal effect on E (rice flat sedge), rating 0-5 (rice flat sedge): 4 (Herbicidal rate of 70% or more and less than 90%); herbicidal effect on H (barnyard grass), rating 0-5 (barnyard grass): 5 (Herbicidal rate of 90% or more (almost completely withered)) |
| Cc1nn(C)c(=O)c(-c2c(-c3ccc(OCCOCCCl)cc3)sc3ccccc23)c1O [1-227] | 5 (Herbicidal rate of 90% or more (almost completely withered)) | 3 (Herbicidal rate of 40% or more and less than 70%) | 3 (Herbicidal rate of 40% or more and less than 70%) | 5 (Herbicidal rate of 90% or more (almost completely withered)) | 4 (Herbicidal rate of 70% or more and less than 90%) | 5 (Herbicidal rate of 90% or more (almost completely withered)) | – | – | – | herbicidal effect on D (Chinese sprangletop), rating 0-5 (Chinese sprangletop): 4 (Herbicidal rate of 70% or more and less than 90%); herbicidal effect on E (rice flat sedge), rating 0-5 (rice flat sedge): 4 (Herbicidal rate of 70% or more and less than 90%); herbicidal effect on H (barnyard grass), rating 0-5 (barnyard grass): 5 (Herbicidal rate of 90% or more (almost completely withered)) |
| Cc1nn(C)c(=O)c(-c2c(-c3ccc([S+]([O-])CC(F)F)cc3)sc3ccc(F)cc23)c1O (stereo not drawn) [2-264] | 4 (Herbicidal rate of 70% or more and less than 90%) | 3 (Herbicidal rate of 40% or more and less than 70%) | 3 (Herbicidal rate of 40% or more and less than 70%) | 3 (Herbicidal rate of 40% or more and less than 70%) | 3 (Herbicidal rate of 40% or more and less than 70%) | 4 (Herbicidal rate of 70% or more and less than 90%) | 3 (Herbicidal rate of 40% or more and less than 70%) | 5 (Herbicidal rate of 90% or more (almost completely withered)) | 5 (Herbicidal rate of 90% or more (almost completely withered)) | – |
| Cc1nn(C)c(=O)c(-c2c(-c3ccc(C[S+](C)[O-])cc3)sc3ccc(F)cc23)c1O (stereo not drawn) [2-332] | 2 (Herbicidal rate of 20% or more and less than 40%) | 0 (Herbicidal rate of 5% or less (almost no effect)) | 0 (Herbicidal rate of 5% or less (almost no effect)) | 0 (Herbicidal rate of 5% or less (almost no effect)) | 3 (Herbicidal rate of 40% or more and less than 70%) | 0 (Herbicidal rate of 5% or less (almost no effect)) | 3 (Herbicidal rate of 40% or more and less than 70%) | 3 (Herbicidal rate of 40% or more and less than 70%) | 5 (Herbicidal rate of 90% or more (almost completely withered)) | – |
| CCCC(=O)Oc1c(C)nn(C)c(=O)c1-c1c(-c2ccc(OC)c(Cl)c2)sc2ccc(F)cc12 [2-371] | 3 (Herbicidal rate of 40% or more and less than 70%) | 3 (Herbicidal rate of 40% or more and less than 70%) | 4 (Herbicidal rate of 70% or more and less than 90%) | 4 (Herbicidal rate of 70% or more and less than 90%) | 0 (Herbicidal rate of 5% or less (almost no effect)) | 3 (Herbicidal rate of 40% or more and less than 70%) | 4 (Herbicidal rate of 70% or more and less than 90%) | 4 (Herbicidal rate of 70% or more and less than 90%) | 4 (Herbicidal rate of 70% or more and less than 90%) | – |
| CCCOc1ccc(-c2oc3ccc(C)cc3c2-c2c(OC(=O)CCC)c(C)nn(C)c2=O)cc1 [9-050] | – | – | – | – | – | – | – | – | – | Herbicidal effect, A: late watergrass (late watergrass [1]; [7]): 5 (Herbicidal rate of 90% or more (almost completely withered)); herbicidal effect grade, B: Japanese bulrush (Japanese bulrush [2]; [7]): 3 (Herbicidal rate of 40% or more and less than 70%); herbicidal effect grade, C: oval-leafed pondweed (oval-leafed pondweed [3]; [7]): 5 (Herbicidal rate of 90% or more (almost completely withered)); Herbicidal effect, C: oval-leafed pondweed (oval-leafed pondweed [4]; [7]): 5 (Herbicidal rate of 90% or more (almost completely withered)); Herbicidal effect on D (Chinese sprangletop), foliage application (Chinese sprangletop; [7]): 3 (Herbicidal rate of 40% or more and less than 70%); Herbicidal effect on E (rice flat sedge), foliage application (rice flat sedge; [7]): 5 (Herbicidal rate of 90% or more (almost completely withered)); herbicidal effect grade, A: late watergrass (late watergrass [5]; [7]): 3 (Herbicidal rate of 40% or more and less than 70%); Herbicidal effect on H (barnyard grass), foliage application (barnyard grass; [7]): 4 (Herbicidal rate of 70% or more and less than 90%); Herbicidal effect, B: Japanese bulrush (Japanese bulrush [6]; [7]): 5 (Herbicidal rate of 90% or more (almost completely withered)) |
| CCCC(=O)Oc1c(C)nn(C)c(=O)c1-c1c(-c2ccc(OCC(C)C)cc2)oc2ccc(C)cc12 [9-052] | – | – | – | – | – | – | – | – | – | Herbicidal effect, A: late watergrass (late watergrass [1]; [7]): 5 (Herbicidal rate of 90% or more (almost completely withered)); herbicidal effect grade, B: Japanese bulrush (Japanese bulrush [2]; [7]): 3 (Herbicidal rate of 40% or more and less than 70%); herbicidal effect grade, C: oval-leafed pondweed (oval-leafed pondweed [3]; [7]): 4 (Herbicidal rate of 70% or more and less than 90%); Herbicidal effect, C: oval-leafed pondweed (oval-leafed pondweed [4]; [7]): 4 (Herbicidal rate of 70% or more and less than 90%); Herbicidal effect on D (Chinese sprangletop), foliage application (Chinese sprangletop; [7]): 0 (Herbicidal rate of 5% or less (almost no effect)); Herbicidal effect on E (rice flat sedge), foliage application (rice flat sedge; [7]): 4 (Herbicidal rate of 70% or more and less than 90%); herbicidal effect grade, A: late watergrass (late watergrass [5]; [7]): 3 (Herbicidal rate of 40% or more and less than 70%); Herbicidal effect on H (barnyard grass), foliage application (barnyard grass; [7]): 5 (Herbicidal rate of 90% or more (almost completely withered)); Herbicidal effect, B: Japanese bulrush (Japanese bulrush [6]; [7]): 5 (Herbicidal rate of 90% or more (almost completely withered)) |
| CCCC(=O)Oc1c(C)nn(C)c(=O)c1-c1c(-c2ccc(SC)cc2)oc2ccc(C)cc12 [9-056] | – | – | – | – | – | – | – | – | – | Herbicidal effect, A: late watergrass (late watergrass [1]; [8]): 5 (Herbicidal rate of 90% or more (almost completely withered)); herbicidal effect grade, B: Japanese bulrush (Japanese bulrush [2]; [8]): 3 (Herbicidal rate of 40% or more and less than 70%); herbicidal effect grade, C: oval-leafed pondweed (oval-leafed pondweed [3]; [8]): 4 (Herbicidal rate of 70% or more and less than 90%); Herbicidal effect, C: oval-leafed pondweed (oval-leafed pondweed [4]; [8]): 4 (Herbicidal rate of 70% or more and less than 90%); Herbicidal effect on D (Chinese sprangletop), foliage application (Chinese sprangletop; [8]): 3 (Herbicidal rate of 40% or more and less than 70%); Herbicidal effect on E (rice flat sedge), foliage application (rice flat sedge; [8]): 4 (Herbicidal rate of 70% or more and less than 90%); herbicidal effect grade, A: late watergrass (late watergrass [5]; [8]): 3 (Herbicidal rate of 40% or more and less than 70%); Herbicidal effect on H (barnyard grass), foliage application (barnyard grass; [8]): 5 (Herbicidal rate of 90% or more (almost completely withered)); Herbicidal effect, B: Japanese bulrush (Japanese bulrush [6]; [8]): 4 (Herbicidal rate of 70% or more and less than 90%) |
